Source: BindingDB's records for doi:10.1021/ml1002508 (2011)
pEC50: −log10 of the molar value.

Assay: Agonist activity at androgen receptor expressed in mouse C2C12 cells assessed as osteoblast differentiation after 5 days

Cc1c(N[C@@H](c2nnc(-c3ccc(C#N)cc3)o2)[C@H](C)O)ccc(C#N)c1Cl [2-chloro-4-((1R,2S)-1-(5-(4-cyanophenyl)-1,3,4-oxadiazol-2-yl)-2-hydroxypropylamino)-3-methylbenzonitrile]
pEC50: 10.00
